# Data published in patent US10954210B2, “Crystal form of tipifarnib and preparation method and pharmaceutical composition thereof” (Hangzhou SoliPharma Co., Ltd., priority 2016, dated 2021).
# Entries after “also recorded” stand apart in the source; their conditions may differ.
# Legend:
# Assay type in all cases: physicochemical
# [1] = Phase and chemical stability experiments (10 days storage, XRD and purity); conditions: for Form (10 days test results): by XRD; for crystalline form after storage / purity change after storage: 10 days at 60° C. dry condition and 40° C./75% RH condition
# Method: (§1) Instruments and characterization methods: • X-ray powder diffraction (XRPD): performed on Bruder D8 Advance diffractometer. The samples were tested at room temperature under the following conditions: scan range 3-40° 2θ, step size 0.02° 2θ, and speed 0.2 s/step.
# [2] = Slurry experiment in water (stirred 3 days at room temperature, XRD); conditions: stirred in water at room temperature for 3 days, by XRD
# Method: as §1
# [3] = Dynamic vapor sorption / isothermal sorption
# Method: Dynamic vapor sorption data and isothermal sorption data were collected on TA Instruments Q5000 TGA. Method: place 1 mg to 10 mg sample into a platinum pan; the weight change of the sample during the change in relative humidity from 0% to 80% to 0% was measured.
Structure (SMILES),Purity (%) (10 days test results) ([1]; 40° C./75% RH),Form (10 days test results) ([1]; 40° C./75% RH),Purity (%) (10 days test results) ([1]; 60° C./drying),Form (10 days test results) ([1]; 60° C./drying),Test results: crystalline form after stirring in water [2],Test results: crystalline form after stirring in water ([2]; listed as Tipifarnib Form II),Test results: crystalline form after stirring in water ([2]; listed as Tipifarnib Form IV),weight change (isothermal sorption plot) ([3]; between 20 to 80% RH),"hygroscopicity ([3]; isothermal sorption plot, 20 to 80% RH)",Test results: crystalline form after stirring in water ([2]; listed as Tipifamib Form I),Test results: crystalline form after stirring in water ([2]; listed as Tipifarnib Form III),Test results: crystalline form after stirring in water ([2]; listed as Tipifarnib Form A),crystalline form after storage [1],purity change after storage [1]
"Cn1cncc1[C@@](N)(c1ccc(Cl)cc1)c1ccc2c(c1)c(-c1cccc(Cl)c1)cc(=O)n2C [Form II, (R)-6-(amino(4-chlorophenyl)(1-methyl-1H-imidazol-5-yl)methyl)-4-(3-chlorophenyl)-1-methyl-2(1H)-quinolinone]",99.86,Tipifarnib Form II,99.84,Tipifarnib Form II,remained unchanged,Tipifarnib Form II,,,,,,,remained their original forms; also recorded: remained its original form,essentially did not decrease; also recorded: essentially did not change
"Cn1cncc1[C@@](N)(c1ccc(Cl)cc1)c1ccc2c(c1)c(-c1cccc(Cl)c1)cc(=O)n2C [Form IV, (R)-6-(amino(4-chlorophenyl)(1-methyl-1H-imidazol-5-yl)methyl)-4-(3-chlorophenyl)-1-methyl-2(1H)-quinolinone]",99.73,Tipifarnib Form IV,99.85,Tipifarnib Form IV,remained unchanged,,Tipifarnib Form IV,,,,,,remained their original forms; also recorded: remained its original form,essentially did not decrease; also recorded: essentially did not change
"Cn1cncc1[C@@](N)(c1ccc(Cl)cc1)c1ccc2c(c1)c(-c1cccc(Cl)c1)cc(=O)n2C [Form III, (R)-6-(amino(4-chlorophenyl)(1-methyl-1H-imidazol-5-yl)methyl)-4-(3-chlorophenyl)-1-methyl-2(1H)-quinolinone]",99.80,Tipifarnib Form III,99.80,Tipifarnib Form III,remained unchanged,,,,,,Tipifarnib Form III,,remained their original forms; also recorded: remained its original form,essentially did not decrease; also recorded: essentially did not change

# Second part, led by results:
Purity (%) (10 days test results) ([1]; 40° C./75% RH),Form (10 days test results) ([1]; 40° C./75% RH),Purity (%) (10 days test results) ([1]; 60° C./drying),Form (10 days test results) ([1]; 60° C./drying),Test results: crystalline form after stirring in water [2],Test results: crystalline form after stirring in water ([2]; listed as Tipifarnib Form II),Test results: crystalline form after stirring in water ([2]; listed as Tipifarnib Form IV),weight change (isothermal sorption plot) ([3]; between 20 to 80% RH),"hygroscopicity ([3]; isothermal sorption plot, 20 to 80% RH)",Test results: crystalline form after stirring in water ([2]; listed as Tipifamib Form I),Test results: crystalline form after stirring in water ([2]; listed as Tipifarnib Form III),Test results: crystalline form after stirring in water ([2]; listed as Tipifarnib Form A),Structure (SMILES),crystalline form after storage [1],purity change after storage [1]
99.61,Tipifarnib Form I,99.72,Tipifarnib Form I,remain unchanged,,,less than 0.2%,not hygroscopic,Tipifamib Form I,,,"Cn1cncc1[C@@](N)(c1ccc(Cl)cc1)c1ccc2c(c1)c(-c1cccc(Cl)c1)cc(=O)n2C [Form I, (R)-6-(amino(4-chlorophenyl)(1-methyl-1H-imidazol-5-yl)methyl)-4-(3-chlorophenyl)-1-methyl-2(1H)-quinolinone]",remained its original form; also recorded: remained their original forms,essentially did not change; also recorded: essentially did not decrease
,,,,transformed to tipifanib Form I,,,,,,,Tipifarnib Form I,"Cn1cncc1[C@@](N)(c1ccc(Cl)cc1)c1ccc2c(c1)c(-c1cccc(Cl)c1)cc(=O)n2C [Form A, (R)-6-(amino(4-chlorophenyl)(1-methyl-1H-imidazol-5-yl)methyl)-4-(3-chlorophenyl)-1-methyl-2(1H)-quinolinone, reference compound]",,
